The target of series [1] is T1, human nicotinic acetylcholine receptor subtype a4b2 (Homo sapiens, UniProt P17787+P43681).
T1 construct: expressed in transfected cells
The series is described as follows: FLIPR nAChR a4b2 positive allosteric modulator activity (modulation of nicotine-induced response). Format: cell-based. The conditions noted are these: shift of nicotine pEC50 in the presence of 10 μM test compound compared to nicotine alone, HEK-293 cells stably expressing hα4β2. On the procedure:
Characterization of hα4β2 Positive Allosteric Modulators Using FLIPR
The modulator activity is determined as a fluorescence-based assay using a Fluorometric Imaging Plate Reader (FLIPR) as described below in more detail.
Full concentration-response curves of nicotine +/− test compound are generated and delta pEC50 values are calculated based on EC50 values for nicotine +/− test compound. EC50 values (Effective Concentration 50%) represent the concentration of the nicotine, at which the nicotine-induced response is 50% of the maximal nicotine-induced response.

Each structure is given as a SMILES string.

T1 sequence (P43681 29-627 limits assumed): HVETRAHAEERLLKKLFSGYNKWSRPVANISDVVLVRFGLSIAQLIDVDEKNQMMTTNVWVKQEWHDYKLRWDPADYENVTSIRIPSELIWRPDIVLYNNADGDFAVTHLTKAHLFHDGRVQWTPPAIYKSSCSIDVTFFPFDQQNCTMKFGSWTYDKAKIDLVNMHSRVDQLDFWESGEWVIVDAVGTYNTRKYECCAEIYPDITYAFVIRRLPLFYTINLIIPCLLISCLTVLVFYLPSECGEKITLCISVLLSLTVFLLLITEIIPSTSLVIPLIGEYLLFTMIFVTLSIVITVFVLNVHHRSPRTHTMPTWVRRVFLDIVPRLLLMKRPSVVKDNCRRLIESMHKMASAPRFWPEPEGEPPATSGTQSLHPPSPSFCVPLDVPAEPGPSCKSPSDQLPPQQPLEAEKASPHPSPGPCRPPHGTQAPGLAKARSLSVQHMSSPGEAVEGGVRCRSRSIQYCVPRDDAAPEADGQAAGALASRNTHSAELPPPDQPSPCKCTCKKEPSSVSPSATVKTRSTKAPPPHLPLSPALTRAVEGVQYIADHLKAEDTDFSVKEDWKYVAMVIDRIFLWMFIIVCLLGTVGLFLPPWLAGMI
T1 sequence (P17787 26-502): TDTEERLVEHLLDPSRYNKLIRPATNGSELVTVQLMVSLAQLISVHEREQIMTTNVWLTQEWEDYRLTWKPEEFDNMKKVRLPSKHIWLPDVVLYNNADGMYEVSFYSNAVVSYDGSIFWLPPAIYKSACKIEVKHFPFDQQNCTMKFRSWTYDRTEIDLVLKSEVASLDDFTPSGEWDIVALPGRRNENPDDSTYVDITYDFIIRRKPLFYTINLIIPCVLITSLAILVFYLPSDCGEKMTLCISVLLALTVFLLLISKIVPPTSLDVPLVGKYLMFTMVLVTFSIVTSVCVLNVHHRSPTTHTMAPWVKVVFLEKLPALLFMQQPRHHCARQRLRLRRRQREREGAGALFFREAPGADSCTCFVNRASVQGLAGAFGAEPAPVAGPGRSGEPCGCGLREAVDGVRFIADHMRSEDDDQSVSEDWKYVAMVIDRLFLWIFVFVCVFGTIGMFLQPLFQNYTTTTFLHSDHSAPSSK

For the molecule `N#Cc1cccc(-n2nnc(-c3ccc(F)nc3)n2)c1` [Compound 2.10, 3-[5-(6-Fluoro-3-pyridyl)tetrazol-2-yl]benzonitrile], the “Delta pEC50” value in series [1] was 1.3.
Take `N#Cc1cccc(-n2nnc(-c3cccnc3)n2)c1` [Compound 2.1, 3-(5-Pyridin-3-yl-tetrazol-2-yl)-benzonitrile]: the “Delta pEC50” value in series [1] is reported as 1.9.
On to `N#Cc1cccc(-n2nnc(-c3cncc(F)c3)n2)c1` [Compound 2.9, 3-[5-(5-Fluoro-3-pyridyl)tetrazol-2-yl]benzonitrile], for which, in series [1], the “Delta pEC50” value is 1.6.
`N#Cc1cccc(-c2nnn(-c3cccnc3)n2)c1` [Compound 2.2, 3-(2-Pyridin-3-yl-2h-tetrazol-5-yl)-benzonitrile]: the melting point was in the range of 185 to 205 °C. The “Delta pEC50” value in series [1] is 1.9.
As to `N#Cc1cccc(-c2nnn(-c3cncc(Br)c3)n2)c1` [Compound 2.5, 3-[2-(5-Bromo-3-pyridyl)tetrazol-5-yl]benzonitrile], the melting point fell in the range of 175 to 191 °C.
As to `Cl.N#Cc1cccc(-c2nnn(-c3ccc(F)nc3)n2)c1` [Compound 2.3, 3-[2-(6-Fluoro-3-pyridyl)tetrazol-5-yl]benzonitrile hydrochloride], the melting point lay within 168 to 170 °C. The “Delta pEC50” value in series [1] is on record as 1.7.
`N#Cc1cccc(-c2nnn(-c3cncc(F)c3)n2)c1` [Compound 2.6, 3-[2-(5-Fluoro-3-pyridyl)tetrazol-5-yl]benzonitrile]: the “Delta pEC50” value in series [1] was 1.8.
Regarding `N#Cc1ccc(-n2nnc(-c3cccnc3)n2)cc1C#N` [Compound 2.14, 4-[5-(3-Pyridyl)tetrazol-2-yl]phthalonitrile], the “Delta pEC50” value in series [1] worked out at 1.1.

As usually defined, the melting point is the temperature, or range, at which the solid turns liquid.

The record behind these values is patent US20120095056A1, “2,5-DISUBSTITUTED TETRAZOLE DERIVATIVES AND THEIR USE AS NICOTINIC ACETYLCHOLINE RECEPTOR MODULATORS” (NEUROSEARCH A/S, priority 2009, published 2012).
